Drawing on US10947215B2, “Heteroaryl compounds and their use as therapeutic drugs” (Dong-A Socio Holdings Co., Ltd., priority 2015, dated 2021), this text covers IC50 and GI50 for 22 compounds.

Bounds are passed on as bounds.

human c-MER catalytic domain, sequence (Q12866 587-858): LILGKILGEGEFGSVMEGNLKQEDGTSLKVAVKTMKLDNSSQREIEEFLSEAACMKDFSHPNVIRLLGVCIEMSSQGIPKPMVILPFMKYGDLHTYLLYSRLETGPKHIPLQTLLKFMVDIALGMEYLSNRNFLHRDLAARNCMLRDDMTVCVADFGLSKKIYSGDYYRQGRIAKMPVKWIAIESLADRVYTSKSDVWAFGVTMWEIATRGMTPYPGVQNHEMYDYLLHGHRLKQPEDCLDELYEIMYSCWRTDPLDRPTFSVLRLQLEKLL

One test concerns the target human c-MER catalytic domain (Homo sapiens (Human), UniProt Q12866). The test is described as follows: LanthaScreen TR-FRET biochemical kinase assay (c-MER). As to conditions: read-out: Mer TK inhibition (IC50), 10 uM ATP.
Take `C[C@@H]1CN(Cc2ccc(-c3ccc(CO[C@H]4CCC[C@@H]4NC(=O)c4cc(-c5cnn(C)c5)cnc4N)cc3)cc2)C[C@H](C)N1C` [Example 190, 2-amino-5-(1-methyl-1H-pyrazol-4-yl)-N-((1S,2S)-2-((4′-((cis-3,4,5-trimethylpiperazin-1-yl)methyl)-[1,1′-biphenyl]-4-yl)methoxy)cyclopentyl)-nicotinamide]: the half-maximal inhibitory concentration (IC50) was < 10 nM.

`C[C@@H]1CN(C)[C@@H](C)CN1Cc1ccc(-c2ccc(CO[C@H]3CCC[C@@H]3NC(=O)c3cc(-c4cnn(C)c4)cnc3N)cc2)cc1` [Example 192, 2-amino-5-(1-methyl-1H-pyrazol-4-yl)-N-((1S,2S)-2-((4′-(((2R,5S)-2,4,5-trimethylpiperazin-1-yl)methyl)-[1,1′-biphenyl]-4-yl)methoxy)cyclopentyl)nicotinamide]: the IC50 was < 10 nM. On the same count and under the same terms, the figure for `CCc1cc(CO[C@H]2CNC[C@@H]2NC(=O)c2cc(-c3ccc(CO)cc3)cnc2N)ccc1C` [Example 389, 2-amino-N-((3S,4S)-4-((3-ethyl-4-methylbenzyl)oxy)pyrrolidin-3-yl)-5-(4-(hydroxymethyl)phenyl)nicotinamide] is < 10 nM.

The subject of a further test is Ba/F3-CDM cells (Ba/F3 transfected with CD8-MerTK). As to the kind of experiment: In cell MER kinase assay, Ba/F3-CDM cell proliferation without IL-3 (Celltiter-Glo, GI50). As to conditions: 48 hours, read-out: Cell growth inhibition (GI50). It is filed as cell-based, murine. In outline: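 Ba/F3 cells expressing CD8-MerTK were grown without IL-3, so that proliferation depends on MerTK. Cells were pre-incubated 24 h, then exposed to compound for 48 h. Viability was read by CellTiter-Glo, with IL-3-supplemented Ba/F3 run in parallel as a nonspecific cytotoxicity control, and GI50 was derived.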
For `C[C@@H]1CN(Cc2ccc(-c3ccc(CO[C@H]4CCC[C@@H]4NC(=O)c4cc(-c5cnn(C)c5)cnc4N)cc3)cc2)C[C@H](C)N1C` [Example 190, 2-amino-5-(1-methyl-1H-pyrazol-4-yl)-N-((1S,2S)-2-((4′-((cis-3,4,5-trimethylpiperazin-1-yl)methyl)-[1,1′-biphenyl]-4-yl)methoxy)cyclopentyl)-nicotinamide], the GI50 was < 100 nM. The same measure, in the same setting: the figure for `C[C@@H]1CN(C)[C@@H](C)CN1Cc1ccc(-c2ccc(CO[C@H]3CCC[C@@H]3NC(=O)c3cc(-c4cnn(C)c4)cnc3N)cc2)cc1` [Example 192, 2-amino-5-(1-methyl-1H-pyrazol-4-yl)-N-((1S,2S)-2-((4′-(((2R,5S)-2,4,5-trimethylpiperazin-1-yl)methyl)-[1,1′-biphenyl]-4-yl)methoxy)cyclopentyl)nicotinamide] is < 100 nM. On the same count and under the same terms, the figure for `CCc1cc(CO[C@H]2CNC[C@@H]2NC(=O)c2cc(-c3ccc(CO)cc3)cnc2N)ccc1C` [Example 389, 2-amino-N-((3S,4S)-4-((3-ethyl-4-methylbenzyl)oxy)pyrrolidin-3-yl)-5-(4-(hydroxymethyl)phenyl)nicotinamide] is 100 to 500 nM; for `CCc1cc(CO[C@H]2CNC[C@@H]2NC(=O)c2cc(-c3ccc(C(N)=O)cc3)cnc2N)ccc1C` [Example 391, 2-amino-5-(4-carbamoylphenyl)-N-((3S,4S)-4-((3-ethyl-4-methylbenzyl)oxy)pyrrolidin-3-yl)nicotinamide] it is > 1000 nM. On the same count and under the same terms, the figure for `CCc1cc(CO[C@H]2CNC[C@@H]2NC(=O)c2cc(-c3cccnc3)cnc2N)ccc1C` [Example 396, 6-amino-N-((3S,4S)-4-((3-ethyl-4-methylbenzyl)oxy)pyrrolidin-3-yl)-[3,3′-bipyridine]-5-carboxamide] is > 1000 nM; for `CCc1cc(CO[C@H]2CNC[C@@H]2NC(=O)c2cc(-c3ccc(NS(C)(=O)=O)cc3)cnc2N)ccc1C` [Example 401, 2-amino-N-((3S,4S)-4-((3-ethyl-4-methylbenzyl)oxy)pyrrolidin-3-yl)-5-(4-(methylsulfonamido)phenyl)nicotinamide] it is > 1000 nM. Take `CCc1cc(CO[C@H]2CNC[C@@H]2NC(=O)c2cc(-c3cnn(C4CCNCC4)c3)cnc2N)ccc1C` [Example 412, 2-amino-N-((3S,4S)-4-((3-ethyl-4-methylbenzyl)oxy)pyrrolidin-3-yl)-5-(1-(piperidin-4-yl)-1H-pyrazol-4-yl)nicotinamide]: the GI50 was > 1000 nM.

For the compound `Cc1ccc(CO[C@H]2CNC[C@@H]2NC(=O)c2cc(-c3cnn(C)c3)cnc2N)cc1` [Example 415, 2-amino-5-(1-methyl-1H-pyrazol-4-yl)-N-((3S,4S)-4-((4-methylbenzyl)oxy)pyrrolidin-3-yl)nicotinamide], the concentration for 50% growth inhibition (GI50) is > 1000 nM. Still for that read-out and setting: the figure for `CCc1cc(CO[C@H]2CNC[C@@H]2NC(=O)c2cc(-c3ccc(C(=O)NC4CCN(C)CC4)cc3)cnc2N)ccc1C` [Example 419, 2-amino-N-((3S,4S)-4-((3-ethyl-4-methylbenzyl)oxy)pyrrolidin-3-yl)-5-(4-((1-methylpiperidin-4-yl)carbamoyl)phenyl)nicotinamide] is > 1000 nM; for `CN1CCN(Cc2ccc(-c3ccc(CO[C@H]4CN(C)C[C@@H]4NC(=O)c4cc(-c5cnn(C)c5)cnc4N)cc3)cc2C(F)(F)F)CC1` [Example 437, 2-amino-5-(1-methyl-1H-pyrazol-4-yl)-N-((3S,4S)-1-methyl-4-((4′-((4-methylpiperazin-1-yl)methyl)-3′-(trifluoromethyl)-[1,1′-biphenyl]-4-yl)-methoxy)pyrrolidin-3-yl)nicotinamide] it is < 100 nM. Still for that read-out and setting: the figure for `Cn1cc(-c2cnc(N)c(C(=O)N[C@H]3CNC[C@@H]3OCc3ccc(-c4ccc(C(C)(C)N5CCN(CCO)CC5)cc4)cc3)c2)cn1` [Example 440] is > 1000 nM. The same measure, in the same setting: the figure for `CC(c1ccc(-c2ccc(CO[C@H]3CNC[C@@H]3NC(=O)c3cc(-c4cnn(C)c4)cnc3N)cc2)cc1)N1CCN(CCO)CC1` (stereo partly drawn) [Example 442, 2-amino-N-((3S,4S)-4-((4′-(1-(4-(2-hydroxyethyl)piperazin-1-yl)ethyl)-[1,1′-biphenyl]-4-yl)methoxy)pyrrolidin-3-yl)-5-(1-methyl-1H-pyrazol-4-yl)nicotinamide] is > 1000 nM; for `CC(c1ccc(-c2ccc(CO[C@H]3CN(C)C[C@@H]3NC(=O)c3cc(-c4cnn(C)c4)cnc3N)cc2)cc1)N1CCN(CCO)CC1` (stereo partly drawn) [Example 443, 2-amino-N-((3S,4S)-4-((4′-(1-(4-(2-hydroxyethyl)piperazin-1-yl)ethyl)-[1,1′-biphenyl]-4-yl)methoxy)-1-methylpyrrolidin-3-yl)-5-(1-methyl-1H-pyrazol-4-yl)nicotinamide] it is < 100 nM; for `Cn1cc(-c2cnc(N)c(C(=O)N[C@H]3CNC[C@@H]3OCc3ccc(-c4ccc(CN5CCN(CCO)CC5)c(C(F)(F)F)c4)cc3)c2)cn1` [Example 444, 2-amino-N-((3S,4S)-4-((4′-((4-(2-hydroxyethyl)piperazin-1-vi)-methyl)-3′-(trifluoromethyl)-[1,1′-biphenyl]-4-yl)methoxy)pyrrolidin-3-yl)-5-(1-methyl-1H-pyrazol-4-yl)nicotinamide] it is > 1000 nM. Regarding `CN1C[C@H](NC(=O)c2cc(-c3cnn(C)c3)cnc2N)[C@@H](OCc2ccc(-c3ccc(CN4CCN(CCO)CC4)c(C(F)(F)F)c3)cc2)C1` [Example 445, 2-amino-N-((3S,4S)-4-((4′-((4-(2-hydroxyethyl)piperazin-1-vi)-methyl)-3′-(trifluoromethyl)-[1,1′-biphenyl]-4-yl)methoxy)-1-methylpyrrolidin-3-yl)-5-(1-methyl-1H-pyrazol-4-yl)nicotinamide], the GI50 is < 100 nM.

As for `Cn1cc(-c2cnc(N)c(C(=O)N[C@H]3CNC[C@@H]3OCc3ccc(-c4ccc(CN5CCN(CCO)CC5)cc4)cc3)c2)cn1` [Example 446, 2-amino-N-((3S,4S)-4-((4′-((4-(2-hydroxyethyl)piperazin-1-yl)-methyl)-[1,1′-biphenyl]-4-yl)methoxy)pyrrolidin-3-yl)-5-(1-methyl-1H-pyrazol-4-yl)-nicotinamide], the GI50 is > 1000 nM. Still for that read-out and setting: the figure for `CN1C[C@H](NC(=O)c2cc(-c3cnn(C)c3)cnc2N)[C@@H](OCc2ccc(-c3ccc(CN4CCN(CCO)CC4)cc3)cc2)C1` [Example 447, 2-amino-N-((3S,4S)-4-((4′-((4-(2-hydroxyethyl)piperazin-1-yl)-methyl)-[1,1′-biphenyl]-4-yl)methoxy)-1-methylpyrrolidin-3-yl)-5-(1-methyl-1H-pyrazol-4-yl)nicotinamide] is < 100 nM; for `CN1CCN(Cc2ccc(-c3ccc(CO[C@H]4COC[C@@H]4NC(=O)c4cc(-c5cnn(C)c5)cnc4N)cc3)cc2)CC1` [Example 448, 2-amino-5-(1-methyl-1H-pyrazol-4-yl)-N-((3S,4R)-4-((4′-((4-methylpiperazin-1-yl)methyl)-[1,1′-biphenyl]-4-yl)methoxy)tetrahydrofuran-3-yl)-nicotinamide] it is < 100 nM.

With `CN1CCN(Cc2ccc(-c3ccc(CO[C@H]4COC[C@@H]4NC(=O)c4cc(-c5cnn(C)c5)cnc4N)cc3)cc2C(F)(F)F)CC1` [Example 449, 2-amino-5-(1-methyl-1H-pyrazol-4-yl)-N-((3S,4R)-4-((4′-((4-methylpiperazin-1-yl)methyl)-3′-(trifluoromethyl)-[1,1′-biphenyl]-4-yl)methoxy)-tetrahydrofuran-3-yl)nicotinamide], the GI50 is < 100 nM. Same read-out and setting: the figure for `CN1CCN(C(C)(C)c2ccc(-c3ccc(CO[C@H]4COC[C@@H]4NC(=O)c4cc(-c5cnn(C)c5)cnc4N)cc3)cc2)CC1` [Example 450, 2-amino-5-(1-methyl-1H-pyrazol-4-yl)-N-((3S,4R)-4-((4′-(2-(4-methylpiperazin-1-yl)propan-2-yl)-[1,1′-biphenyl]-4-yl)methoxy)tetrahydrofuran-3-yl)nicotinamide] is < 100 nM.

For the compound `Cn1cc(-c2cnc(N)c(C(=O)N[C@H]3COC[C@@H]3OCc3ccc(-c4ccc(CN5CCN(CCO)CC5)cc4)cc3)c2)cn1` [Example 451, 2-amino-N-((3S,4R)-4-((4′-((4-(2-hydroxyethyl)piperazin-1-yl)methyl)-[1,1′-biphenyl]-4-yl)methoxy)tetrahydrofuran-3-yl)-5-(1-methyl-1H-pyrazol-4-yl)nicotinamide], the GI50 is < 100 nM. In the case of `Cn1cc(-c2cnc(N)c(C(=O)N[C@H]3COC[C@@H]3OCc3ccc(-c4ccc(CN5CCN(CCO)CC5)c(C(F)(F)F)c4)cc3)c2)cn1` [Example 452], the GI50 was < 100 nM.
